# Data published in PubChem BioAssay AID602356 (Sanford-Burnham Center for Chemical Genomics, 2012).
# Activity calls are given as the source filed them. How the calls were made is not given here.
# Target: Neurotensin receptor type 1 (Homo sapiens) (UniProt P30989)
# Assay: NTR1 agonists in analog series, SAR follow-up, imaging, image-based, set 3 (AID 602356)
# Conditions: NTR1 image-based agonist assay, cellular imaging
# Sequence of Neurotensin receptor type 1 (Homo sapiens) (P30989 whole entry, looked up): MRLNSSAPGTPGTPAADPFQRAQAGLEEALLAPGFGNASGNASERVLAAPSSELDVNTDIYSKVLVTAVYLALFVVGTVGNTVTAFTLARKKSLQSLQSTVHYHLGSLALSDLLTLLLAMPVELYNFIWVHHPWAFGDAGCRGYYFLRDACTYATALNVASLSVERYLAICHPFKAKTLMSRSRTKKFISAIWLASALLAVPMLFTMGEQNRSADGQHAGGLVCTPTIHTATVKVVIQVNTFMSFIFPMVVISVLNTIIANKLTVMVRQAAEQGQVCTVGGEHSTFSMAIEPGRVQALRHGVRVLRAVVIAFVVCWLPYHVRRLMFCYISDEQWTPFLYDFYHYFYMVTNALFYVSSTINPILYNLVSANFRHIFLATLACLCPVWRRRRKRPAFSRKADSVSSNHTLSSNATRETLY
row,Compound,EC50
1,CCOc1ccc(-c2nnc3c4cc(OC)c(OC)cc4n(Cc4ccc(C)cc4)cc2-3)cc1,13 µM
2,COc1cc2nc(C3CC3)nc(N3CCN(c4ccccc4Cl)CC3)c2cc1OC,19.8 µM
3,COc1ccccc1-c1nc(C(=O)N[C@@H](CC(C)C)C(=O)O)cn1-c1ccncc1,> 80 µM (inactive)
4,COc1cc2c3nnc(-c4ccc(C)c(C)c4)c-3cn(Cc3ccc(F)cc3)c2cc1OC,16.2 µM
5,COc1ccc2c(c1)c1nnc(-c3ccc(F)cc3)c-1cn2Cc1ccc(F)cc1,13.9 µM
6,COc1ccc(-c2nnc3c4ccccc4n(Cc4ccc(F)cc4)cc2-3)cc1,inactive

# Continued, values first:
row,EC50,Compound
1,inactive,Cc1ccc(Cn2cc3c(-c4ccc(Cl)cc4)nnc-3c3cc4c(cc32)OCO4)cc1
2,2.95 µM,COc1cc2c3nnc(-c4ccc(Cl)cc4)c-3cn(Cc3ccc(F)cc3)c2cc1OC
3,inactive,COc1ccccc1CN1CCN(c2nc(C3CC3)nc3cc(OC)c(OC)cc23)CC1
